According to PubChem BioAssay AID1963844 (Molecular Pharmacology Branch, DTP, NCI, 2024):

Test system: 422866-222-R5-J1-PDC complex spheroid viability
Experiment: Anticancer human tumor 422866-222-R5-J1-PDC patient-derived pancreatic adenocarcinoma cell line growth inhibition [POLQ]
Settings: for IC50: curve of first compound; for viability, T/C: stronger effect = lower value
Outline: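 Growth inhibition in 3D: complex spheroids (tumor PDC, HUVEC, MSC) treated with POLQ inhibitor combinations; where Cmax unknown, highest tested concentration 10 microM, except SN-38 at 1 microM.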

[1] = second compound 0.0316 µM, first compound 0.0316 µM
[2] = second compound 0.0316 µM, first compound 0.1 µM
[3] = second compound 0.1 µM, first compound 0.0316 µM
[4] = second compound 0.1 µM, first compound 0.1 µM
[5] = second compound 0.316 µM, first compound 0.0316 µM
[6] = second compound 0.316 µM, first compound 0.1 µM
[7] = second compound 1 µM, first compound 0.0316 µM
[8] = second compound 1 µM, first compound 0.1 µM
[9] = second compound 3.16 µM, first compound 0.0316 µM
[10] = second compound 3.16 µM, first compound 0.1 µM
[11] = second compound 10 µM, first compound 0.0316 µM
[12] = second compound 10 µM, first compound 0.1 µM
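Note: spheroids exposed to compounds for one week before readout.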
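Throughout, for viability, T/C: percent of DMSO vehicle wells luminescence so 100% = untreated viability.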

CC(=O)O[C@H]1C(=O)[C@@]2(C)[C@H]([C@H](OC(=O)c3ccccc3)[C@]3(O)C[C@H](OC(=O)[C@H](O)[C@@H](NC(=O)c4ccccc4)c4ccccc4)C(C)=C1C3(C)C)[C@]1(OC(C)=O)CO[C@@H]1C[C@@H]2O + Cc1cccc(N(C)C(=O)C2C(O)CCN2c2nc(C)cc(C(F)(F)F)c2C#N)c1
IC50 (second compound 0.0316 µM): < 9.49 nM
IC50 (second compound 0.1 µM): > 3000 nM
IC50 (second compound 0.316 µM): > 3000 nM
IC50 (second compound 1 µM): < 9.49 nM
IC50 (second compound 3.16 µM): > 3000 nM
IC50 (second compound 10 µM): < 9.49 nM
viability, T/C (second compound 0.0316 µM, first compound 0.00949 µM): 48.8%
viability, T/C (second compound 0.0316 µM, first compound 0.03 µM): 47.8%
viability, T/C (second compound 0.0316 µM, first compound 0.0949 µM): 44.6%
viability, T/C (second compound 0.0316 µM, first compound 0.3 µM): 53%
viability, T/C (second compound 0.0316 µM, first compound 0.949 µM): 52.6%
viability, T/C (second compound 0.0316 µM, first compound 3 µM): 56%
viability, T/C (second compound 0.1 µM, first compound 0.00949 µM): 54%
viability, T/C (second compound 0.1 µM, first compound 0.03 µM): 47.9%
viability, T/C (second compound 0.1 µM, first compound 0.0949 µM): 58.1%
viability, T/C (second compound 0.1 µM, first compound 0.3 µM): 50.2%
viability, T/C (second compound 0.1 µM, first compound 0.949 µM): 49.4%
viability, T/C (second compound 0.1 µM, first compound 3 µM): 52.6%
viability, T/C (second compound 0.316 µM, first compound 0.00949 µM): 54%
viability, T/C (second compound 0.316 µM, first compound 0.03 µM): 51.9%
viability, T/C (second compound 0.316 µM, first compound 0.0949 µM): 55.2%
viability, T/C (second compound 0.316 µM, first compound 0.3 µM): 46.3%
viability, T/C (second compound 0.316 µM, first compound 0.949 µM): 52.3%
viability, T/C (second compound 0.316 µM, first compound 3 µM): 56.6%
viability, T/C (second compound 1 µM, first compound 0.00949 µM): 49.8%
viability, T/C (second compound 1 µM, first compound 0.03 µM): 41.3%
viability, T/C (second compound 1 µM, first compound 0.0949 µM): 51.9%
viability, T/C (second compound 1 µM, first compound 0.3 µM): 55.6%
viability, T/C (second compound 1 µM, first compound 0.949 µM): 50.9%
viability, T/C (second compound 1 µM, first compound 3 µM): 59.8%
viability, T/C (second compound 3.16 µM, first compound 0.00949 µM): 57.5%
viability, T/C (second compound 3.16 µM, first compound 0.03 µM): 46.9%
viability, T/C (second compound 3.16 µM, first compound 0.0949 µM): 59.7%
viability, T/C (second compound 3.16 µM, first compound 0.3 µM): 49.8%
viability, T/C (second compound 3.16 µM, first compound 0.949 µM): 57.8%
viability, T/C (second compound 3.16 µM, first compound 3 µM): 67.8%
viability, T/C (second compound 10 µM, first compound 0.00949 µM): 47.7%
viability, T/C (second compound 10 µM, first compound 0.03 µM): 48%
viability, T/C (second compound 10 µM, first compound 0.0949 µM): 42.9%
viability, T/C (second compound 10 µM, first compound 0.3 µM): 51.6%
viability, T/C (second compound 10 µM, first compound 0.949 µM): 64.9%
viability, T/C (second compound 10 µM, first compound 3 µM): 68.3%

CC[C@@]1(O)C(=O)OCc2c1cc1n(c2=O)Cc2cc3c(CN(C)C)c(O)ccc3nc2-1 + Cc1cccc(N(C)C(=O)C2C(O)CCN2c2nc(C)cc(C(F)(F)F)c2C#N)c1
IC50 (second compound 0.0316 µM): 30.7 nM
IC50 (second compound 0.1 µM): 24.1 nM
IC50 (second compound 0.316 µM): 31.2 nM
IC50 (second compound 1 µM): 47 nM
IC50 (second compound 3.16 µM): 25.9 nM
IC50 (second compound 10 µM): 31.3 nM
viability, T/C (second compound 0.0316 µM, first compound 0.000316 µM): 104%
viability, T/C (second compound 0.0316 µM, first compound 0.001 µM): 101%
viability, T/C (second compound 0.0316 µM, first compound 0.00316 µM): 85.7%
viability, T/C (second compound 0.0316 µM, first compound 0.01 µM): 75.7%
viability, T/C [1]: 42.5%
viability, T/C [2]: 45.5%
viability, T/C (second compound 0.1 µM, first compound 0.000316 µM): 105%
viability, T/C (second compound 0.1 µM, first compound 0.001 µM): 104%
viability, T/C (second compound 0.1 µM, first compound 0.00316 µM): 97%
viability, T/C (second compound 0.1 µM, first compound 0.01 µM): 62.6%
viability, T/C [3]: 46.2%
viability, T/C [4]: 44.4%
viability, T/C (second compound 0.316 µM, first compound 0.000316 µM): 114%
viability, T/C (second compound 0.316 µM, first compound 0.001 µM): 105%
viability, T/C (second compound 0.316 µM, first compound 0.00316 µM): 98.2%
viability, T/C (second compound 0.316 µM, first compound 0.01 µM): 87.5%
viability, T/C [5]: 47.6%
viability, T/C [6]: 46.3%
viability, T/C (second compound 1 µM, first compound 0.000316 µM): 114%
viability, T/C (second compound 1 µM, first compound 0.001 µM): 111%
viability, T/C (second compound 1 µM, first compound 0.00316 µM): 91%
viability, T/C (second compound 1 µM, first compound 0.01 µM): 77.5%
viability, T/C [7]: 53.5%
viability, T/C [8]: 41.1%
viability, T/C (second compound 3.16 µM, first compound 0.000316 µM): 96.2%
viability, T/C (second compound 3.16 µM, first compound 0.001 µM): 108%
viability, T/C (second compound 3.16 µM, first compound 0.00316 µM): 98.9%
viability, T/C (second compound 3.16 µM, first compound 0.01 µM): 80.3%
viability, T/C [9]: 40.8%
viability, T/C [10]: 46.6%
viability, T/C (second compound 10 µM, first compound 0.000316 µM): 82%
viability, T/C (second compound 10 µM, first compound 0.001 µM): 106%
viability, T/C (second compound 10 µM, first compound 0.00316 µM): 102%
viability, T/C (second compound 10 µM, first compound 0.01 µM): 77%
viability, T/C [11]: 50.7%
viability, T/C [12]: 48.8%

COc1cc(C2c3cc4c(cc3C(OC3OC5COC(C)OC5C(O)C3O)C3COC(=O)C23)OCO4)cc(OC)c1O (stereo unspecified) + Cc1cccc(N(C)C(=O)C2C(O)CCN2c2nc(C)cc(C(F)(F)F)c2C#N)c1
IC50 (second compound 0.0316 µM): 1230 nM
IC50 (second compound 0.1 µM): 1650 nM
IC50 (second compound 0.316 µM): 1360 nM
IC50 (second compound 1 µM): 735 nM
IC50 (second compound 3.16 µM): 714 nM
IC50 (second compound 10 µM): 876 nM
viability, T/C [1]: 96.8%
viability, T/C [2]: 84.3%
viability, T/C (second compound 0.0316 µM, first compound 0.316 µM): 69%
viability, T/C (second compound 0.0316 µM, first compound 1 µM): 53.5%
viability, T/C (second compound 0.0316 µM, first compound 3.16 µM): 37.9%
viability, T/C (second compound 0.0316 µM, first compound 10 µM): 33.2%
viability, T/C [3]: 101%
viability, T/C [4]: 92.9%
viability, T/C (second compound 0.1 µM, first compound 0.316 µM): 63.3%
viability, T/C (second compound 0.1 µM, first compound 1 µM): 58.6%
viability, T/C (second compound 0.1 µM, first compound 3.16 µM): 44.2%
viability, T/C (second compound 0.1 µM, first compound 10 µM): 31.8%
viability, T/C [5]: 110%
viability, T/C [6]: 92.7%
viability, T/C (second compound 0.316 µM, first compound 0.316 µM): 68.8%
viability, T/C (second compound 0.316 µM, first compound 1 µM): 50.6%
viability, T/C (second compound 0.316 µM, first compound 3.16 µM): 47.7%
viability, T/C (second compound 0.316 µM, first compound 10 µM): 35.8%
viability, T/C [7]: 105%
viability, T/C [8]: 94.7%
viability, T/C (second compound 1 µM, first compound 0.316 µM): 61.8%
viability, T/C (second compound 1 µM, first compound 1 µM): 46.5%
viability, T/C (second compound 1 µM, first compound 3.16 µM): 38.5%
viability, T/C (second compound 1 µM, first compound 10 µM): 29.7%
viability, T/C [9]: 103%
viability, T/C [10]: 88.8%
viability, T/C (second compound 3.16 µM, first compound 0.316 µM): 56.6%
viability, T/C (second compound 3.16 µM, first compound 1 µM): 49.6%
viability, T/C (second compound 3.16 µM, first compound 3.16 µM): 40.1%
viability, T/C (second compound 3.16 µM, first compound 10 µM): 33.7%
viability, T/C [11]: 91.5%
viability, T/C [12]: 77.1%
viability, T/C (second compound 10 µM, first compound 0.316 µM): 56%
viability, T/C (second compound 10 µM, first compound 1 µM): 49.9%
viability, T/C (second compound 10 µM, first compound 3.16 µM): 45.1%
viability, T/C (second compound 10 µM, first compound 10 µM): 37%
